Entries after “also recorded” stand apart in the source; their conditions may differ. Read-outs that look alike come from different tables or passages of the source.
Tests used:
clinical [1] = conditions: human, oral; for half-life: plasma; for CL renal: urine and plasma, CLr
Procedure: Both evaluations followed randomized, double-blind, placebo-controlled designs. Part 1 was conducted at PPD Development (Austin, Tex.) and Part 2 was conducted at two sites: Aspen Clinical Research (Orem, Utah) and Altoona Center for Clinical Research (Duncansville, Pa.).
(§3) Subjects received study drug for 26 consecutive days (Study Days 3 through 28) and a single morning dose of study drug on Study Day 29. […] Subjects were confined to the study site for a total of 10 days—from Day 1 to Day 4 and from Day 27 to Day 31.
(§4) Samples quantified below the LLOQ were reported as zero.
(§5) Renal clearance (CLr) was calculated as Au,0-12/AUC0-12 at steady state.

clinical [2] = conditions: human, plasma, oral, 48 mg
Procedure: (§6) Study 1 was designed as a single-site, randomized, double-blind, placebo-controlled study. […] Study drug was administered following at least 10 hours of fasting. […] Subjects were confined to the study site and supervised for approximately 8 consecutive days.
as §4, §5
(§7) Statistical analyses were performed using SAS software (Version 9.3; SAS institute Inc., Cary, N.C., USA).

healthy subjects [3] = experiment: Study 1: safety and tolerability, single doses, healthy subjects
Procedure: as §6
Safety was evaluated based on assessments of adverse events, vital signs, physical examination, laboratory metrics, and 12-lead electrocardiogram (ECG). All subjects who received at least one dose of study drug were included in the safety analyses. Subjects who were administered placebo were pooled into a single group within each study or study part. Laboratory test values and vital signs measurements that were above or below the reference range were identified. Subjects were followed-up for a total of 7 days in Study 1, 35 days in Study 2-Part 1, and 57 days in Study 2-Part 2.

clinical [4] = conditions: human, oral; for AUC(0-t) / half-life: plasma; for CL renal: urine and plasma
Procedure: (§8) Both evaluations followed randomized, double-blind, placebo-controlled designs. Part 1 was conducted at PPD Development (Austin, Tex.) and Part 2 was conducted at two sites: Aspen Clinical Research (Orem, Utah) and Altoona Center for Clinical Research (Duncansville, Pa.). Study protocol and informed consents were approved by RCRC IRB (Austin, Tex.) and Quorum Review IRB (Seattle, Wash.).
(§9) Study drug was administered approximately 30 minutes after a standard breakfast (in the morning) or a snack (in the evening). […] Subjects were confined to the study site and supervised for approximately 18 days.
as §4, §5, §7

[5] = Study 2-Part 1: multiple-dose escalation PK in healthy subjects
Procedure: as §8, §9, §4, §5, §7

[6] = test system: subjects with mild to moderate RA; experiment: Study 2-Part 2: safety and tolerability, subjects with RA; type: in vivo, human
Procedure: as §3
Safety was evaluated based on assessments of adverse events, vital signs, physical examination, laboratory metrics, and 12-lead electrocardiogram (ECG). All subjects who received at least one dose of study drug were included in the safety analyses. Subjects who were administered placebo were pooled into a single group within each study or study part. Laboratory test values and vital signs measurements that were above or below the reference range were identified. Subjects were followed-up for a total of 7 days in Study 1, 35 days in Study 2-Part 1, and 57 days in Study 2-Part 2. […] In subjects with RA, the severity of adverse events were rated by the investigator as mild (transient and easily tolerated by the subject), moderate (causes subject discomfort and interrupts the subject's usual activities), or severe (causes considerable interference with the subject's usual activities and may be incapacitating or life-threatening).

healthy subjects [7] = experiment: Study 2-Part 1: safety and tolerability, multiple doses, healthy subjects; type: in vivo, human
Procedure: as §9
Safety was evaluated based on assessments of adverse events, vital signs, physical examination, laboratory metrics, and 12-lead electrocardiogram (ECG). All subjects who received at least one dose of study drug were included in the safety analyses. Subjects who were administered placebo were pooled into a single group within each study or study part. Laboratory test values and vital signs measurements that were above or below the reference range were identified. […] In subjects with RA, the severity of adverse events were rated by the investigator as mild (transient and easily tolerated by the subject), moderate (causes subject discomfort and interrupts the subject's usual activities), or severe (causes considerable interference with the subject's usual activities and may be incapacitating or life-threatening).

[8] = Pharmacokinetic interaction of Compound 1 and methotrexate (dose-normalized AUC); type: in vivo, human; conditions: FIG. 35A
[9] = Study 1: single-dose escalation PK in healthy subjects
Procedure: as §6, §4, §5, §7

[10] = Chemical stability of solid state forms in closed vials at controlled temperature and relative humidity; type: physicochemical
Procedure: (§1) The Amorphous Freebase, however, is hygroscopic and can comprise as much as 12% by weight water at 25° C./90% relative humidity. Environmental controls potentially are required to ensure appropriate control of potency and water content during storage, dispensing, and handling of the Amorphous Freebase.
(§2) The Tartrate Hydrate, however, potentially will convert to an amorphous tartrate below 10% relative humidity, when heated, or when compressed or under shear.

[11] = Solubility of solid state forms; type: physicochemical
[12] = Moisture sorption isotherm; type: physicochemical; conditions: below 10% relative humidity at 25° C.
Procedure: Moisture vapor isotherm data were collected with a DVS Advantage (Surface Measurement Systems Ltd, Alperton, United Kingdom). The sample powder (5 mg to 20 mg) was loaded on a tared pan of the DVS Advantage. The moisture sorption isotherm data were collected from 30-0-90-0-30% relative humidity in 10% relative humidity intervals. For each step, the dm/dt criteria was 0.001% over 5 minutes, a minimum dm/dt time of 30 minutes, and a maximum dm/dt of 120 minutes. Data was collected isothermally at 25° C. with a nitrogen flow rate of 200 cm^3/minute. The post DVS sample was kept at approximately 30% relative humidity before PXRD analysis.

[13] = Stability of solid state forms to light and peroxide; type: physicochemical
Procedure: as §1, §2

[14] = Hygroscopicity / moisture sorption isotherm of solid state forms; type: physicochemical; conditions: general statement on the solid state form
Excerpt: FIG. 6A is a moisture sorption isotherm corresponding to the Amorphous Freebase (via dehydration).
FIG. 6C is a moisture sorption isotherm corresponding to the Tartrate Hydrate.
FIG. 6D is a moisture sorption isotherm corresponding to the Freebase Anhydrate Form D.
In one embodiment, the Tartrate Hydrate has a moisture sorption isotherm profile showing a weight gain of about 1% to about 2% when relative humidity is increased from about 10% relative humidity to about 90% relative humidity at a temperature of 25° C.

[15] = Solid state accelerated stability study; type: physicochemical; conditions: for Growth of degradation products: open and closed glass vials
Procedure: Samples (approximately 1 mg to 2 mg) of the solid state form were weighed into glass vials and tested as described below.

[16] = Physical stability of solid state forms (dehydration, desolvation, conversion); type: physicochemical; conditions: general statement on the solid state form
Procedure: The Tartrate Hydrate dehydrated into Amorphous at low relative humidity and high temperature, e.g., <10% RH at 25° C. Shearing and compression potentially cause conversion to the amorphous tartrate, and therefore it is not suitable for compressing into tablet form. Additionally, the filter cake solidified during drying, resulting in the need for additional controls during drying.
In addition, Freebase Hydrate Form C can be grown into different particle sizes.
Freebase Anhydrate Form D can be manufactured only when the water content of the crystallization solvent is low, and will convert to Freebase Hydrate Form C in solutions at high water content. The manufacture of Freebase Anhydrate Form D thus requires strict control of water content. Freebase Anhydrate Form D is slow to crystallize, and difficult to manufacture in higher yield. […] Freebase Hydrate Form C will convert to Freebase Anhydrate Form D in a solution of ethyl acetate with low water content.
The resulting amorphous hydrochloride is hygroscopic. Yields obtained for each of the crystalline hydrochlorides generally have been in the 10% to 15% range.

[17] = on average across all dose groups
[18] = 6 mg BID, Day 14, healthy subjects
[19] = 12 mg BID, Day 14, healthy subjects
[20] = 24 mg BID, Day 14, healthy subjects
[21] = multiple twice-daily doses 3 mg
[22] = multiple twice-daily doses 6 mg
[23] = multiple twice-daily doses 12 mg
[24] = multiple twice-daily doses 24 mg
[25] = multiple twice-daily doses, Total Compound 1
[26] = single 48 mg dose, healthy subjects

CC[C@@H]1CN(C(=O)NCC(F)(F)F)C[C@@H]1c1cnc2cnc3[nH]ccc3n12 [Compound 1, (3S,4R)-3-ethyl-4-(3H-imidazo[1,2-a]pyrrolo[2,3-e]pyrazin-8-yl)-N-(2,2,2-trifluoroethyl)pyrrolidine-1-carboxamide]
half-life (clinical [1]; 6 mg, t1/2F (functional half-life), 6 mg BID, Day 29, subjects with RA, harmonic mean): 210 min
half-life (clinical [1]; 12 mg, t1/2F (functional half-life), 12 mg BID, Day 29, subjects with RA, harmonic mean): 222 min
half-life (clinical [1]; 24 mg, t1/2F (functional half-life), 24 mg BID, Day 29, subjects with RA, harmonic mean): 216 min
half-life (clinical [1]; functional half-life, subjects with RA on stable doses of methotrexate): ~240 min
CL renal (clinical [1]; 6 mg, 6 mg BID, Day 28, subjects with RA): 116 mL/min
CL renal (clinical [1]; 6 mg, 6 mg BID, Day 29, subjects with RA): 82.2 mL/min
CL renal (clinical [1]; 12 mg, 12 mg BID, Day 28, subjects with RA): 104 mL/min
CL renal (clinical [1]; 12 mg, 12 mg BID, Day 29, subjects with RA): 82.7 mL/min
CL renal (clinical [1]; 24 mg, 24 mg BID, Day 28, subjects with RA): 105 mL/min
AUC(0-inf) (clinical [2]): 1040 ± 174 ng·h/mL
AUC(0-t) (clinical [2]): 1030 ± 174 ng·h/mL
Headache, subjects (healthy subjects [3]; single dose 48 ng): 2 (33.3%)
Presyncope, subjects (healthy subjects [3]; single dose 48 ng): 0
Headache, subjects (healthy subjects [3]; single dose 1 mg): 0
Presyncope, subjects (healthy subjects [3]; single dose 1 mg): 0
Headache, subjects (healthy subjects [3]; single dose 3 mg): 0
Presyncope, subjects (healthy subjects [3]; single dose 3 mg): 0
Headache, subjects (healthy subjects [3]; single dose 6 mg): 0
Presyncope, subjects (healthy subjects [3]; single dose 6 mg): 1 (16.7%)
Headache, subjects (healthy subjects [3]; single dose 12 mg): 0
Presyncope, subjects (healthy subjects [3]; single dose 12 mg): 0
Headache, subjects (healthy subjects [3]; single dose 24 mg): 0
Presyncope, subjects (healthy subjects [3]; single dose 24 mg): 1 (16.7%)
Headache, subjects (healthy subjects [3]; single dose 36 mg): 0
Presyncope, subjects (healthy subjects [3]; single dose 36 mg): 0
Tolerability (healthy subjects [3]; single doses up to 48 mg and multiple twice daily doses up to 24 mg, immediate-release formulation): well-tolerated
dose-limiting toxicities or safety concerns (healthy subjects [3]; single doses up to 48 mg or multiple doses up to 24 mg twice daily): no dose-limiting toxicities or safety concerns
Presyncope, subjects (healthy subjects [3]; single doses, Total Compound 1): 2 (4.8%)
Severity of TEAEs (healthy subjects [3]; single doses, healthy subjects): mild
maximum tolerated dose (healthy subjects [3]; single or multiple dose studies): not reached
AUC(0-t) (clinical [4]; 3 mg): 78.3 ± 20.3 ng·h/mL
half-life (clinical [4]; 3 mg): 192 ± 24 min
AUC(0-t) (clinical [4]; 6 mg): 138 ± 16.7 ng·h/mL
half-life (clinical [4]; 6 mg): 198 ± 18 min
half-life (clinical [4]; 12 mg): 192 ± 30 min
CL renal (clinical [4]; 3 mg): 125 mL/min
CL renal (clinical [4]; 12 mg): 162 mL/min
Ctrough (6 mg BID, Day 28, subjects with RA): 5.81 ng/mL
AUC0-12 (12 mg BID, Day 28, subjects with RA): 334 ng·h/mL
Ctrough (12 mg BID, Day 29, subjects with RA): 6.44 ng/mL
Ctrough (24 mg BID, Day 28, subjects with RA): 15.3 ng/mL
Ctrough (24 mg BID, Day 29, subjects with RA): 14.9 ng/mL
apparent oral clearance lower in subjects with RA compared to healthy subjects [17]: 23%
higher exposure in subjects with RA than in healthy subjects [17]: approximately 30%
Ctrough ([5]; 3 mg BID, Day 14, healthy subjects): 1.46 ± 0.50 ng/mL
CL/F [5, 18]: 43.9 ± 5.4 L/h
Ctrough [5, 18]: 2.29 ± 0.41 ng/mL
CL/F [5, 19]: 45.5 ± 8.04 L/h
Ctrough [5, 19]: 4.54 ± 1.55 ng/mL
CL/F [5, 20]: 46.1 ± 6.44 L/h
Ctrough [5, 20]: 9.50 ± 2.57 ng/mL
t1/2F (functional half-life) ([5]; 24 mg BID, Day 14, healthy subjects, harmonic mean ± pseudo-SD): 3.3 ± 0.4 h
functional half-life ([5]; estimated from Cmax to Ctrough ratio at steady-state, healthy volunteers): approximately 3 hours
pre-dose concentrations on Study Day 13 lower compared with Study Day 5 ([5]; multiple dosing, healthy volunteers): 13%
subjects with at least one TEAE ([6]; Compound 1 dose groups (total of 11 subjects with RA)): Five subjects
number of TEAEs reported ([6]; Compound 1 dose groups, subjects with RA): 7
Abdominal Discomfort, subjects (healthy subjects [7]; [21]): 0
Abdominal Pain, subjects (healthy subjects [7]; [21]): 0
Diarrhoea, subjects (healthy subjects [7]; [21]): 0
Headache, subjects (healthy subjects [7]; [21]): 0
Nasopharyngitis, subjects (healthy subjects [7]; [21]): 1 (12.5%)
Abdominal Discomfort, subjects (healthy subjects [7]; [22]): 0
Abdominal Pain, subjects (healthy subjects [7]; [22]): 1 (12.5%)
Diarrhoea, subjects (healthy subjects [7]; [22]): 1 (12.5%)
Headache, subjects (healthy subjects [7]; [22]): 2 (25.0%)
Nasopharyngitis, subjects (healthy subjects [7]; [22]): 1 (12.5%)
Abdominal Discomfort, subjects (healthy subjects [7]; [23]): 0
Abdominal Pain, subjects (healthy subjects [7]; [23]): 0
Diarrhoea, subjects (healthy subjects [7]; [23]): 1 (12.5%)
Headache, subjects (healthy subjects [7]; [23]): 2 (25.0%)
Nasopharyngitis, subjects (healthy subjects [7]; [23]): 0
Abdominal Discomfort, subjects (healthy subjects [7]; [24]): 0
Abdominal Pain, subjects (healthy subjects [7]; [24]): 1 (12.5%)
Diarrhoea, subjects (healthy subjects [7]; [24]): 0
Headache, subjects (healthy subjects [7]; [24]): 1 (12.5%)
Nasopharyngitis, subjects (healthy subjects [7]; [24]): 0
Abdominal Discomfort, subjects (healthy subjects [7]; [25]): 0
Abdominal Pain, subjects (healthy subjects [7]; [25]): 2 (6.3%)
Diarrhoea, subjects (healthy subjects [7]; [25]): 2 (6.3%)
Headache, subjects (healthy subjects [7]; [25]): 5 (15.6%)
Nasopharyngitis, subjects (healthy subjects [7]; [25]): 2 (6.3%)
changes in hematologic parameters (healthy subjects [7]; multiple-dose administration in healthy subjects for 14 days): no clinically significant changes
effect of concomitant methotrexate administration on Compound 1 dose-normalized AUC [8]: lack of effect
CL/F [9, 26]: 47.6 ± 8.97 L/h
dose-normalized AUC∞ lower than that following 3 mg dose [9, 26]: 40%
Dose proportionality of exposures ([9]; single dose range of 3 to 36 mg and multiple dose range of 3 mg to 24 mg BID): dose proportional

CC[C@@H]1CN(C(=O)NCC(F)(F)F)C[C@@H]1c1cnc2cnc3[nH]ccc3n12.O.O.O.O.O=C(O)C(O)C(O)C(=O)O [Tartrate Hydrate, (3S,4R)-3-ethyl-4-(3H-imidazo[1,2-a]pyrrolo[2,3-e]pyrazin-8-yl)-N-(2,2,2-trifluoroethyl)pyrrolidine-1-carboxamide tartrate tetrahydrate]
degradation observed in closed vials ([10]; closed vials, 30° C./65% relative humidity and 40° C./75% relative humidity over 12 weeks, 50° C./75% relative humidity over 6 weeks): no degradation
chemical stability ([10]; general statement on the solid state form): acceptable chemical stability
BCS class [11]: Class I
Solubility ([11]; Amorphous Freebase: relative to the corresponding crystalline forms): high solubility; also recorded: good solubility
Dehydration in moisture sorption isotherm analysis [12]: dehydrates to an amorphous tartrate
stability to light and peroxide [13]: acceptable stability
hygroscopicity [14]: not hygroscopic
Growth of degradation products ([15]; 25° C./60% relative humidity, up to 24 months): no growth of degradation products
Growth of degradation products ([15]; 40° C./75% relative humidity, at least one month): no growth of degradation products
Growth of degradation products ([15]; 50° C./75% relative humidity, up to six weeks): no growth of degradation products
chemical stability ([15]; solid state accelerated stability study): acceptable
Change in attributes evaluated (description, crystal form, assay, impurities and water content) ([15]; storage conditions of the accelerated stability study): No material change
physical stability [16]: lack of physical stability
